Data from paper PMC10534827 (Pharmaceuticals, 2023).
Read-outs that look alike come from different tables or passages of the source.

What was measured:
[1] = biological target: T1, butyrylcholinesterase from equine serum (Equus caballus, UniProt P81908); test: biochemical; conditions: for inhibition at 1000 µM: read-out: Activity [%] (inhibition percentage of BChE); for SI BChE: IC50(AChE)/IC50(BChE)
T1 construct: butyrylcholinesterase from equine serum; purchased Sigma-Aldrich, Hamburg, Germany; host or cells: equine serum
Procedure: (§1) AChE and BChE inhibitory activity was measured using the microplate assay described by Ellman et al. [68] with the modifications added by López et al. [36]. The compounds were tested at concentrations between 10^−3 and 10^−8 M. First, all compounds were dissolved in 1% DMSO in a concentration of 1 mg/mL.
(§2) Incubation of the plates was performed at room temperature for 30 min. Then, 100 μL of substrate solution were added to start the enzymatic reaction. […] Enzyme activity was calculated as an inhibition percentage compared to an assay including buffer instead of an inhibitor. […] All data were analyzed with the software package Prism 3 (Graph Pad Inc., San Diego, CA, USA).

CCL-1 cells = test: MTT cytotoxicity, CCL-1 normal fibroblasts; format: cell-based, murine; conditions: read-out: CCL-1 IC50
[2] = biological target: T2, Acetylcholinesterase from Electrophorus electricus (Electrophorus electricus, UniProt O42275); test: biochemical; format: biochemical; conditions: for IC50: mean ± SD of three experiments, read-out: AChE IC50; for inhibition at 1000 µM: 1 mM solution of the tested compound, read-out: Activity [%] (inhibition percentage of AChE)
T2 construct: purchased Sigma-Aldrich, Hamburg, Germany
Procedure: as §1, §2

Neuro-2a cells = test: MTT cytotoxicity, Neuro-2a; format: cell-based, murine; conditions: read-out: Neuro-2a IC50
SH-SY5Y cells = test: MTT cytotoxicity, SH-SY5Y; format: cell-based, human; conditions: read-out: SH-SY5Y IC50
[3] = Lipid peroxidation in linoleic acid system, FTC method; conditions: 10 mM compound, 500 nm
Procedure: The antioxidant activity of studied compounds against lipid peroxidation was measured through ammonium thiocyanate assay as described by Takao et al. [66] with some modifications. […] A 10 μL aliquot of the reaction solution was then added to 200 μL of 70% (v/v) ethanol and 10 μL of 30% (w/v) ammonium thiocyanate. […] Aliquots were assayed every 24 h until the day after the absorbance of the control solution (without compound) reached maximum value. BHT (10 mM) was used as positive control.

[4] = DPPH radical scavenging activity; conditions: 300 μL of 5 mM compound in MeOH, 30 min, 517 nm
Procedure: The DPPH (2,2-diphenyl-1-picryl-hydrazyl-hydrate) free radical scavenging activity method is based on the neutralization of the DPPH radical by an antioxidant.
Free radical scavenging activity was measured using DPPH method [69, 70] with slight modification. Here, 300 μL of 5 mM solutions of tested compounds in MeOH were added to 2 mL methanolic solution of DPPH (2 mg/mL). […] Results were evaluated as percentage scavenging of radical:DPPH radical scavenging activity (%) = ((Abscontr. − Abssample)/Abscontr.) ×100, where Abscontr. is the absorbance of DPPH radical with 300 μL MeOH, Abssample is the absorbance of DPPH radical solution mixed with sample. BHT was used as positive control.

[5] = Ferric reducing antioxidant power (FRAP); conditions: 150 μL of 5 mM compound, 30 min, 593 nm, Trolox equivalent
[6] = ABTS radical scavenging assay; conditions: 734 nm after 5 min
Procedure: These compounds were also tested for their antioxidant activities by using the ABTS [2,2′-azinobis (3-ethylbenzothiazoline-6-sulfonic acid)] cation radical decolorization method (Table 4). The BHT [41] was used for comparison. The ABTS cation radical is produced by oxidation of the ABTS molecule with strong oxidizing agents, such as potassium persulfate in water.
For ABTS assay, the procedure followed the method of Arnao et al. [71] with some modifications. […] The working solution was then prepared by mixing the two stock solutions in equal quantities and allowing them to react for 14 h at room temperature in the dark. […] A fresh ABTS solution was prepared for each assay. […] The ABTS scavenging capacity of the compound was calculated as follows:ABTS radical scavenging activity (%) = ((Abscontr. − Abssample)/Abscontr.) ×100, where Abscontr. is the absorbance of DPPH radical with 300 μL MeOH, Abssample is the absorbance of DPPH radical solution mixed with the sample. […] BHT was used as positive control.

[7] = mean ± SD of three experiments, read-out: BChE IC50
[8] = Mus musculus, Fibroblast, MTT, 72 h exposure
[9] = Mus musculus, N2a, MTT, 72 h exposure
[10] = Homo sapiens, SH-SY5Y, MTT, 72 h exposure
[11] = 1 mM solution of the tested compound

T2 sequence (O42275 24-633): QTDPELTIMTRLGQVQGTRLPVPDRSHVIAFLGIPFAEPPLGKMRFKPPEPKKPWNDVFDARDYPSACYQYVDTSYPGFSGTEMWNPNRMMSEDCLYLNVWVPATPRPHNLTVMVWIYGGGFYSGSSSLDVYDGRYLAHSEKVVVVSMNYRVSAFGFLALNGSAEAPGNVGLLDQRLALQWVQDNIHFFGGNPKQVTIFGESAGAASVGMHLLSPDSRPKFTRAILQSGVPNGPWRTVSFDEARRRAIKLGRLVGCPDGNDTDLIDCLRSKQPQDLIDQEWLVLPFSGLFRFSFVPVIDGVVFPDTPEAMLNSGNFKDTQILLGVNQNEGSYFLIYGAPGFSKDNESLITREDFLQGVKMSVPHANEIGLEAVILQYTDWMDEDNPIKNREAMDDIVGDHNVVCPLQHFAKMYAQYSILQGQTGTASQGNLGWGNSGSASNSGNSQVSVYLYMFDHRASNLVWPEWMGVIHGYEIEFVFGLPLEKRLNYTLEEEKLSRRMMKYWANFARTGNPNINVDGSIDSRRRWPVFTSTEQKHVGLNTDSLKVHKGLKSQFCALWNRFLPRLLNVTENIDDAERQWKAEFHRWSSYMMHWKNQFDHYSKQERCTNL
T1 sequence (P81908 whole entry): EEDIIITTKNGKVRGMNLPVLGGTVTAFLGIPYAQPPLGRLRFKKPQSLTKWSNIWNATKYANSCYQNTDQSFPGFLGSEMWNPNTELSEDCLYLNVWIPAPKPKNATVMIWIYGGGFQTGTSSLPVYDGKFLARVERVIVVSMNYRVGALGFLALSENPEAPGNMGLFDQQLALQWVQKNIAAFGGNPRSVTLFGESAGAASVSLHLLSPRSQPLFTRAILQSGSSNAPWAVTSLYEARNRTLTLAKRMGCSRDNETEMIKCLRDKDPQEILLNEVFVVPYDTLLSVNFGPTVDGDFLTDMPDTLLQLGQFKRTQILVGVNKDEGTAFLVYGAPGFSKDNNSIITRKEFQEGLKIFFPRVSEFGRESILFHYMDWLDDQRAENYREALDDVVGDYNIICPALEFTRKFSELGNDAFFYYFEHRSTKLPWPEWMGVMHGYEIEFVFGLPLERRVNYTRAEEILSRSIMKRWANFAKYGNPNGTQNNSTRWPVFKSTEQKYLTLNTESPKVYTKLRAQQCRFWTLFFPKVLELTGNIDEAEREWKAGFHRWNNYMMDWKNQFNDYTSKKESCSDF

Compound	IC50 [1, 7] [µM]	IC50 (CCL-1 cells; [8]) [µM]	IC50 [2] [µM]	IC50 (Neuro-2a cells; [9]) [µM]	IC50 (SH-SY5Y cells; [10]) [µM]	inhibition at 1000 µM [1, 11] [%]	inhibition at 1000 µM [2] [%]	further results
O=S(=O)(N/N=C/c1ccc(Cl)cc1)c1ccccc1 [5l, N’-[(E)-(4-chlorophenyl)methylidene]benzenesulfonohydrazide]	> 1000	131 ± 11.4	> 1000	117 ± 11.5	99.5 ± 7.8			
COc1ccc(/C=N/NS(=O)(=O)c2ccccc2)cc1OC [5i, N’-[(E)-(3,4-dimethoxyphenyl)methylidene]benzenesulfonohydrazide]	> 1000	147	> 1000	109 ± 5.1	40.3 ± 6.1	7.67 ± 0.99	2.63	Absorbance Day 1 [3]: 0.81 ± 0.08; Absorbance Day 2 [3]: 0.83 ± 0.01; Absorbance Day 3 [3]: 0.83 ± 0.09; Absorbance Day 4 [3]: 0.81 ± 0.02; Absorbance Day 5 [3]: 0.83 ± 0.03; DPPH Activity [4]: 16.21 ± 3.01%; FRAP [5]: 14.67 ± 0.81 μMTE; ABTS Activity [6]: 65.29 ± 2.34%; IC50 [6]: 3740 ± 50 µM
COc1ccc(S(=O)(=O)N/N=C/c2cn(C)c3ccccc23)cc1 [5e, 4-methoxy-N’-[(E)-(1-methyl-1H-indol-3-yl)methylidene]benzenesulfonohydrazide]	> 1000	180 ± 9.6	> 1000	19.9 ± 1.7	83.3 ± 4.9			
COc1cc2c(cc1OC)C(=O)C(CC1CCN(Cc3ccccc3)CC1)C2 (stereo not shown) [Donepezil, 1-Benzyl-4-[(5,6-dimethoxy-1-indanon-2-yl)methyl]piperidine, reference compound]								inhibition at 1000 µM [1]: 69.1%
COc1ccc2c(c1)c(/C=N/NC(=O)CNC(=O)OC(C)(C)C)cn2C [3k]	> 1000	> 300	> 1000	> 300	131 ± 11.8	30.3	3.26	
COc1ccc(/C=N/NC(=O)c2c[nH]c3ccccc23)cc1OC [3o, N’-[(E)-(3,4-dimethoxyphenyl)methylidene]-1H-indole-3-carbohydrazide]	> 1000	> 300	> 1000	126 ± 10.7	70 ± 7.2			
COc1ccc(S(=O)(=O)N/N=C/c2cn(C)c3ccc(OC)cc23)cc1 [5b, 4-methoxy-N’-[(E)-(5-methoxy-1-methyl-1H-indol-3-yl)methylidene]benzenesulfonohydrazide]	> 1000	38.1 ± 3.5	> 1000	30.5 ± 3.2	70.4 ± 4.9			
COc1ccc(S(=O)(=O)N/N=C/c2c[nH]c3ccc(OC)cc23)cc1 [5c, 4-methoxy-N’-[(E)-(5-methoxy-1H-indol-3-yl)methylidene]benzenesulfonohydrazide]	> 1000	25.7 ± 2.9	> 1000	7.5 ± 2.4	48.3 ± 5.2	18.2		
COc1ccc2[nH]cc(CCNC(C)=O)c2c1 [Melatonin, reference compound]			> 1000				1.24	IC50 [1]: > 1000 µM; inhibition at 1000 µM [1]: 4.21 ± 0.88%; Absorbance Day 1 [3]: 0.75 ± 0.07; Absorbance Day 2 [3]: 0.80 ± 0.09; Absorbance Day 3 [3]: 0.89 ± 0.05; Absorbance Day 4 [3]: 0.89 ± 0.02; Absorbance Day 5 [3]: 0.94 ± 0.01
COc1ccc2[nH]cc(/C=N/NC(=O)CNC(=O)OC(C)(C)C)c2c1 [3j]	> 1000	> 300	> 1000	> 300	150 ± 12.3	17.4		
COc1ccc2c3c1O[C@H]1C[C@@H](O)C=C[C@@]31CCN(C)C2 [Galanthamine, reference compound]								inhibition at 1000 µM [1]: 85.8%; IC50 (CCL-1 cells; Mus musculus, Fibroblast, 72 h): > 300 µM; IC50 (Neuro-2a cells; Mus musculus, N2a, 72 h): > 300 µM; IC50 (SH-SY5Y cells; Homo sapiens, SH-SY5Y, 72 h): > 300 µM
O=C(N/N=C/c1ccc(O)c(O)c1)C1CCN(Cc2ccccc2)C1 (stereo not shown) [3g, 1-benzyl-N’-[(E)-(3,4-dihydroxyphenyl)methylidene]pyrrolidine-3-carbohydrazide]	> 1000	> 300	> 1000	110 ± 9.1	> 300	28.2	2.74	AChE inhibitory activity in words [2]: practically inactive
O=S(=O)(N/N=C/c1cn(Cc2ccccc2)c2ccccc12)c1ccccc1 [5d, N’-[(E)-(1-benzyl-1H-indol-3-yl)methylidene]benzenesulfonohydrazide]	> 1000	140 ± 8.4	> 1000	117 ± 11.5	99.5 ± 7.8		41.7	
O=C(N/N=C/c1c(O)cc(O)cc1O)C1CCN(Cc2ccccc2)C1 (stereo not shown) [3h, 1-benzyl-N’-[(E)-(2,4,6-trihydroxyphenyl)methylidene]pyrrolidine-3-carbohydrazide]	179 ± 11.5	> 300	351 ± 17.9	> 300	> 300	76.5	73.3	SI BChE [1]: 1.96
N’-[(E)-(5-methoxy-1-methyl-1H-indol-3-yl)methylidene]benzenesulfonohydrazide [5f]	> 1000		> 1000					IC50 (CCL-1 cells; MTT, 72 h exposure): 167 ± 11.8 µM; IC50 (Neuro-2a cells; MTT, 72 h exposure): 135 ± 10.9 µM; IC50 (SH-SY5Y cells; MTT, 72 h exposure): 132 ± 10.3 µM
Cn1cc(/C=N/NC(=O)CNC(=O)OC(C)(C)C)c2ccccc21 [3l, tert-butyl(2-{(2E)-2-[(1-methyl-1H-indol-3-yl)methylidene]hydrazinyl}-2-oxoethyl)carbamate]	> 1000	> 300	> 1000	> 300	107 ± 8.9	39.1		
Cc1cc(C(C)(C)C)c(O)c(C(C)(C)C)c1 [BHT, butylated hydroxytoluene, reference compound]								Absorbance Day 1 [3]: 0.74 ± 0.07; Absorbance Day 2 [3]: 0.77 ± 0.03; Absorbance Day 3 [3]: 0.78 ± 0.06; Absorbance Day 4 [3]: 0.80 ± 0.06; Absorbance Day 5 [3]: 0.81 ± 0.09; DPPH Activity [4]: 7.78 ± 0.77%; FRAP [5]: 15.79 ± 0.58 μMTE; ABTS Activity [6]: 29.53 ± 1.65%; IC50 [6]: > 5000 µM
COc1ccc(/C=N/NC(=O)Cc2c[nH]c3ccccc23)cc1OC [3p, N’-[(E)-(3,4-dimethoxyphenyl)methylidene]-2-(1H-indol-3-yl)acetohydrazide]	> 1000	> 300	> 1000	116 ± 12.8	87.4 ± 7.7	24		
COc1cc(/C=N/NC(=O)c2ccc(O)cc2O)ccc1O [3r, 2,4-dihydroxy-N’-[(E)-(4-hydroxy-3-methoxyphenyl)methylidene]benzohydrazide]	> 1000	> 300	> 1000	> 300	156 ± 11.1	16.9		Absorbance Day 1 [3]: 0.80 ± 0.04; Absorbance Day 2 [3]: 0.81 ± 0.01; Absorbance Day 3 [3]: 0.82 ± 0.02; Absorbance Day 4 [3]: 0.87 ± 0.09; Absorbance Day 5 [3]: 0.86 ± 0.09; FRAP [5]: 14.30 ± 0.56 μMTE; ABTS Activity [6]: 91.41 ± 0.47%; IC50 [6]: 2500 ± 230 µM
O=C(N/N=C/c1ccc(O)cc1O)C1CCN(Cc2ccccc2)C1 (stereo not shown) [3f, 1-benzyl-N’-[(E)-(2,4-dihydroxyphenyl)methylidene]pyrrolidine-3-carbohydrazide]	709 ± 41.3	150 ± 11.2	550 ± 37.1	12.5 ± 2.4	35.8 ± 5.5	57.2	64.1	SI AChE ([2]; IC50(BChE)/IC50(AChE)): 1.28
O=C(N/N=C/c1ccc(O)cc1)C1CCN(Cc2ccccc2)C1 (stereo not shown) [3e, 1-benzyl-N’-[(E)-(4-hydroxyphenyl)methylidene]pyrrolidine-3-carbohydrazide]	> 1000	> 300	> 1000	> 300	170 ± 10.6	12.4	3.84	AChE inhibitory activity in words [2]: practically inactive
Cc1ccc(S(=O)(=O)N/N=C/c2c[nH]c3ccc(OCc4ccccc4)cc23)cc1 [5j, N’-{(E)-[5-(benzyloxy)-1H-indol-3-yl]methylidene}-4-methylbenzenesulfonohydrazide]	865 ± 159	41.2 ± 4.2	> 1000	65.4 ± 0.1	33.1 ± 0.1	56.9	13.2	SI BChE [1]: 1.15; Absorbance Day 1 [3]: 0.83 ± 0.01; Absorbance Day 2 [3]: 0.83 ± 0.08; Absorbance Day 3 [3]: 0.84 ± 0.02; Absorbance Day 4 [3]: 0.83 ± 0.05; Absorbance Day 5 [3]: 0.82 ± 0.02; FRAP [5]: 18.59 ± 2.28 μMTE; ABTS Activity [6]: ≥100%; IC50 [6]: 2180 ± 160 µM
